{"source": "patent US10548897B2", "about": "“KSR antagonists” (Icahn School of Medicine at Mount Sinai, priority 2015, dated 2020)", "key": {"[1]": {"system": "KSR-stimulated MEK and ERK phosphorylation", "experiment": "Cell-based reconstitution system monitoring KSR-driven MAPK signaling", "conditions": "for suppression of KSR-stimulated MEK and ERK phosphorylation: KSR expression-dependent MAPK signaling", "text": "To assess the biological function of lead compounds as Ras-MAPK pathway antagonists, a simplified cell-based reconstitution system was developed to directly monitor KSR-driven MAPK signaling. […] Based on similarity in phenotype and direct-binding activity, Compound 21 was identified as a small molecule mimic of KSR alleles that suppress oncogenic Ras mutations."}, "[2]": {"target": "KSR2 (purified hKSR2-rMEK1 complex) (Homo sapiens (Human), UniProt Q6VAB6)", "sequence (Q6VAB6 634-950)": "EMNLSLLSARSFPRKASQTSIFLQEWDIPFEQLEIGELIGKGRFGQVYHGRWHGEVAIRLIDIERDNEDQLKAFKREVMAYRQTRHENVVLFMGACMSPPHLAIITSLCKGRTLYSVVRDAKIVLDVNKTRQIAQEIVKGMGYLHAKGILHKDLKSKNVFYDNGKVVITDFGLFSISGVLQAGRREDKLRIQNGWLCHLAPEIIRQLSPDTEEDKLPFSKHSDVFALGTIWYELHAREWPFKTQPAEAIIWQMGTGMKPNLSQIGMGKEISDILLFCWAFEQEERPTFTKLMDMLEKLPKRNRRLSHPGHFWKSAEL", "sequence (P29678 whole entry partner, the tested form may be a part)": "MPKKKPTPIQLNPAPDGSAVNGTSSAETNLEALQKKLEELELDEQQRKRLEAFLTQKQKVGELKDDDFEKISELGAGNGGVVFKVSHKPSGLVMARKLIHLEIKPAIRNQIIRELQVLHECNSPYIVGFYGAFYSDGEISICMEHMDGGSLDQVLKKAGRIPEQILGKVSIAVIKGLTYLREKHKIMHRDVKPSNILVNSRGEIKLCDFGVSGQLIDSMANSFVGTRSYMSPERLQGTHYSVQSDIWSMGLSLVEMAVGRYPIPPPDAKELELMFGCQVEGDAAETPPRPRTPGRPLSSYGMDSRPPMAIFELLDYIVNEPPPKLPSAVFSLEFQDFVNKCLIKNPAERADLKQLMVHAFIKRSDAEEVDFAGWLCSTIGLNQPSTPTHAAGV", "experiment": "ATP-biotin probe labeling and inhibitor competition (KSR2 band)", "type": "binding", "conditions": "for KSR binding (assessed): panel of known kinase inhibitors; for competition of ATPbiotin probe labeling in KSR2:MEK1 complexes (in words): screen / SAR statements", "text": "Human KSR2 (residues 634-950) and rabbit MEK1 (residues 1 to 393) were codon optimized for insect cell expression by DNA 2.0. Inserts were expressed with TEV cleavable 6×-His tags from the pFastBac Dual expression vector. Bacmids were used to transfect adherent SF21 cells and viruses were subsequently titred to high levels through serial infections of SF21 cells. […] Briefly, following infections, cells were harvested, lysed, and affinity purified using Co2+ sepharose resin (GoldBio). […] Dialysis retentate was diluted 3 fold and then applied to a Resourse S ion exchange column. […] One-to-one hKSR2-MEK1 complexes were captured in late fractions from an increasing salt gradient. Complexes were later applied to a 120 mL Superdex 200 gel filtration column and finally concentrated to approximately 10 mg/mL before flash freezing for biochemical assays.\nThe ATP-biotin assay was performed in buffer containing 25 mM Tris pH 7.5, 150 mM NaCl, 10 mM MgCl2, and 2% DMSO. […] In particular, hKSR2-rMEK1 was pre-incubated with 20 μM of the indicated compounds for 15 minutes. Then, ATP-biotin (Pierce Cat. #88310) was added to a final concentration of 2 μM. Reactions were incubated at room temperature for 5 minutes before being stopped by the addition of 6×SDS loading dye. […] Enhanced chemiluminescence signals corresponding to labeling on KSR2 and MEK1 were visualized and quantified using the Biodoc system (Biorad). Relative signals of Streptavidin HRP on bands corresponding to KSR2 and MEK1 in the presence of compounds relative to DMSO controls were used to determine ‘Percent Inhibition of ATP Probe Labeling’.\nFor the ATP^biotin labeling competition screen, samples were applied to a 4-20% Tris-HCl gel, separated, and then transferred to a nitrocellulose membrane. The membrane was blocked with 5% bovine serum albumin diluted in TBS-T for 30 minutes and subsequently probed with the Pierce™ High Sensitivity Streptavidin-HRP. After several washes, the membranes were visualized using enhanced chemiluminescence on a Biodoc (Biorad)."}, "[3]": {"system": "MAPK pathway readouts (pERK, pMEK, pRSK) in A375 and HCT-116", "experiment": "Western blot of MAPK pathway readouts, treatment with trametinib combinations", "type": "cell-based", "conditions": "for MAPK pathway inhibition (pERK, pMEK, pRSK) in combination with trametinib: combined with trametinib, A375 and HCT-116"}, "KSR2:B-RAF^F667E dimers": {"target": "KSR2:B-RAF^F667E dimers (Homo sapiens, UniProt Q6VAB6)", "experiment": "Biolayer inferometry of KSR2:B-RAF dimerization (Octet Red96)", "type": "binding", "conditions": "compound at 25 μM", "protocol": "B-RAF and B-RAF mutants (F667E+/−R509H) were immobilized on sensor-heads and KSR2:MEK1 or MEK1 assembly was monitored. Curves indicate dose ranges of KSR2:MEK1 or MEK1 from 625 nM to 10 μM. In all plots, association occurred from 0 to 660 seconds, and dissociation was monitored thereafter up to 1500 seconds. Compound 21 and trametinib were added in the presence of KSR2:MEK1 at a concentration of 25 μM each.\nTo directly investigate the impact of Compound 21 on KSR2:B-RAF dimerization, bio-layer inferometry (BLI) was utilized to monitor real-time association and dissociation of KSR2:MEK1 or free MEK1 to a sensor tethered with immobilized B-RAF.\nTo specifically monitor KSR2:B-RAF dimerization relative to other possible interactions, a mutation in B-RAF^F667E was identified that eliminates binding to free MEK but not KSR2-MEK1 complexes, as shown in FIGS. 7C-7D. […]\nInteractions between purified B-RAF and the KSR2:MEK1 complex were measured using biolayer inferometry on the Octet Red96 system (Forte Bio). […] Association and dissociation was monitored over 660 and 840 seconds, respectively. Data sets were normalized and analysed using global fit binding models (Fortebio software). […]"}, "[4]": {"target": "MEK1 (purified hKSR2-rMEK1 complex) (Oryctolagus cuniculus (Rabbit), UniProt P29678)", "sequence (P29678 whole entry, the tested form may be a part)": "as the sequence (P29678 whole entry partner, the tested form may be a part) above", "sequence (Q6VAB6 634-950 partner)": "as the sequence (Q6VAB6 634-950) above", "experiment": "ATP-biotin probe labeling competition (MEK1 band)", "type": "binding", "conditions": "competition with free ATP, purified KSR2:MEK1; read-out: free ATP IC50, ATPbiotin labeling of MEK1", "text": "Human KSR2 (residues 634-950) and rabbit MEK1 (residues 1 to 393) were codon optimized for insect cell expression by DNA 2.0. Inserts were expressed with TEV cleavable 6×-His tags from the pFastBac Dual expression vector. Bacmids were used to transfect adherent SF21 cells and viruses were subsequently titred to high levels through serial infections of SF21 cells. […] Briefly, following infections, cells were harvested, lysed, and affinity purified using Co2+ sepharose resin (GoldBio). […] Dialysis retentate was diluted 3 fold and then applied to a Resourse S ion exchange column. This step removed excess MEK1, which binds weakly to the S column. One-to-one hKSR2-MEK1 complexes were captured in late fractions from an increasing salt gradient. Complexes were later applied to a 120 mL Superdex 200 gel filtration column and finally concentrated to approximately 10 mg/mL before flash freezing for biochemical assays.\nThe ATP-biotin assay was performed in buffer containing 25 mM Tris pH 7.5, 150 mM NaCl, 10 mM MgCl2, and 2% DMSO. Purified hKSR2-rMEK1 was assayed at 0.5 μM. In particular, hKSR2-rMEK1 was pre-incubated with 20 μM of the indicated compounds for 15 minutes. Then, ATP-biotin (Pierce Cat. #88310) was added to a final concentration of 2 μM. […] Enhanced chemiluminescence signals corresponding to labeling on KSR2 and MEK1 were visualized and quantified using the Biodoc system (Biorad). […]"}, "[5]": {"conditions": "ATPbiotin probe labeling competition, 0.1 μM KSR2:MEK1, 27 nM to 20 μM compound, triplicate, read-out: KSR2 IC50"}}, "note": "Structures can show the parent of a compound that is named as a salt. Where two headings read alike, the source gives them in different places.", "data": [{"smiles": "COc1cc2ncnc(Nc3ccc(Oc4ccccc4)c(C)c3C)c2cc1OC.Cl", "note": "[Compound 50, N-(2,3-Dimethyl-4-phenoxyphenyl)-6,7-dimethoxyquinazolin-4-amine hydrochloride]", "values": [{"measurement": "suppression of KSR-stimulated MEK and ERK phosphorylation", "setting": "[1]", "value": "inactive"}, {"measurement": "IC50", "setting": "[2]; [5]", "value": "> 10", "unit": "µM"}]}, {"smiles": "CC(=O)Nc1cccc(-n2c(=O)n(C3CC3)c(=O)c3c(Nc4ccc(I)cc4F)n(C)c(=O)c(C)c32)c1", "note": "[trametinib, reference compound]", "values": [{"measurement": "MAPK pathway inhibition (pERK, pMEK, pRSK), single agent", "setting": "[3]; alone, compared with Compound 21 + trametinib co-treatment", "value": "did not display the same pathway inhibition"}, {"measurement": "enhancement of KSR2:B-RAF dimerization", "setting": "KSR2:B-RAF^F667E dimers", "value": "~2", "unit": "fold"}]}, {"smiles": "CCN(CC)CCNC(=O)c1c(C)[nH]c(/C=C2\\C(=O)Nc3ccc(F)cc32)c1C", "note": "[sutent, reference compound]", "values": [{"measurement": "MAPK pathway inhibition (pERK, pMEK, pRSK) in combination with trametinib", "setting": "[3]", "value": "not observed"}, {"measurement": "KSR binding (assessed)", "setting": "[2]", "value": "non-KSR binders"}]}, {"smiles": "COc1cc2nccc(Nc3ccc(Oc4ccccc4)cc3)c2cc1OC.Cl", "note": "[Compound 11, 6,7-Dimethoxy-N-(4-phenoxyphenyl)quinolin-4-amine hydrochloride]", "values": [{"measurement": "competition of ATPbiotin probe labeling in KSR2:MEK1 complexes (in words)", "setting": "[2]", "value": "moderately tolerated"}]}, {"smiles": "CC(C)(C)c1nc(-c2cccc(NS(=O)(=O)c3c(F)cccc3F)c2F)c(-c2ccnc(N)n2)s1", "note": "[dabrafenib, reference compound]", "values": [{"measurement": "suppression of KSR-stimulated MEK and ERK phosphorylation", "setting": "[1]", "value": "active"}, {"measurement": "suppression of KSR-stimulated MAPK signaling with active site mutant KSR^A690F", "setting": "[1]; KSR^A690F mutant", "value": "active"}]}, {"smiles": "COc1cc2/c(=N/c3ccc(Oc4ccccc4)cc3)ncn(C)c2cc1OC", "note": "[Compound 32, (Z)—N-(6,7-Dimethoxy-1-methylquinazolin-4(1H)-ylidene)-4-phenoxyaniline]", "values": [{"measurement": "IC50", "setting": "[2]; [5]", "value": "> 10", "unit": "µM"}, {"measurement": "competition of ATPbiotin probe labeling in KSR2:MEK1 complexes (in words)", "setting": "[2]", "value": "greatly diminishes KSR2:MEK1 activity"}]}, {"smiles": "Nc1ncnc2c1ncn2[C@@H]1O[C@H](COP(=O)(O)OP(=O)(O)OP(=O)(O)O)[C@@H](O)[C@H]1O", "note": "[ATP, reference compound]", "values": [{"measurement": "IC50", "setting": "[4]", "value": 133, "unit": "µM"}, {"measurement": "IC50", "setting": "[2]; competition with free ATP, purified KSR2:MEK1, read-out: free ATP IC50, ATPbiotin labeling of KSR2", "value": 86, "unit": "µM"}]}, {"smiles": "COc1cc2ncnc(Nc3ccc(Oc4ccccc4)cc3)c2cc1OC.Cl", "note": "[Compound 2, 6,7-Dimethoxy-N-(4-phenoxyphenyl)quinazolin-4-amine]", "values": [{"measurement": "competition of ATPbiotin probe labeling in KSR2:MEK1 complexes (in words)", "setting": "[2]", "value": "competitor of probe labeling"}]}, {"smiles": "Cc1nc(Nc2ncc(C(=O)Nc3c(C)cccc3Cl)s2)cc(N2CCN(CCO)CC2)n1", "note": "[dasatinib, reference compound]", "values": [{"measurement": "MAPK pathway inhibition (pERK, pMEK, pRSK) in combination with trametinib", "setting": "[3]", "value": "not observed"}, {"measurement": "KSR binding (assessed)", "setting": "[2]", "value": "non-KSR binders"}]}, {"smiles": "C#Cc1cccc(Nc2ncnc3cc(OCCOC)c(OCCOC)cc23)c1", "note": "[erlotinib, reference compound]", "values": [{"measurement": "MAPK pathway inhibition (pERK, pMEK, pRSK) in combination with trametinib", "setting": "[3]", "value": "not observed"}, {"measurement": "KSR binding (assessed)", "setting": "[2]", "value": "non-KSR binders"}]}, {"smiles": "COc1ccc(Nc2ncnc3cc(OC)c(OC)cc23)cc1", "note": "[Compound 3, 6,7-Dimethoxy-N-(4-methoxyphenyl)quinazolin-4-amine hydrochloride]", "values": [{"measurement": "IC50", "setting": "[2]; [5]", "value": "> 10", "unit": "µM"}]}, {"smiles": "COc1cc2ncnc(Nc3ccc(O)cc3)c2cc1OC", "note": "[Compound 7, 4-((6,7-Dimethoxyquinazolin-4-yl)amino)phenol hydrochloride]", "values": [{"measurement": "IC50", "setting": "[2]; [5]", "value": "> 10", "unit": "µM"}]}, {"smiles": "CCCS(=O)(=O)Nc1ccc(F)c(C(=O)c2c[nH]c3ncc(Cl)cc23)c1F", "note": "[PLX4720]", "values": [{"measurement": "MAPK pathway inhibition (pERK, pMEK, pRSK) in combination with trametinib", "setting": "[3]", "value": "did not display the same pathway inhibition"}]}, {"smiles": "CS(=O)(=O)CCNCc1ccc(-c2ccc3ncnc(Nc4ccc(OCc5cccc(F)c5)c(Cl)c4)c3c2)o1", "note": "[lapatinib, reference compound]", "values": [{"measurement": "MAPK pathway inhibition (pERK, pMEK, pRSK) in combination with trametinib", "setting": "[3]", "value": "not observed"}, {"measurement": "KSR binding (assessed)", "setting": "[2]", "value": "non-KSR binders"}]}]}
